Assay results reported in ChEMBL document CHEMBL5370681, “Lipid Tales: Optimizing Arylomycin Membrane Anchors” (ACS Med Chem Lett, 2023).
Values after ≈ are worked out from the molar mass of the structure shown.

Experiments:
Escherichia coli [1] = assay: Antibacterial activity against Escherichia coli 25922 incubated for 18 hrs in presence of 50% mouse serum by two-fold serial dilution method; format: functional
[2] = biological target: Signal peptidase I (Escherichia coli K-12) (UniProt P00803); assay: Inhibition of LepB in Escherichia coli IMP assessed as antibacterial activity by measuring reduction in bacterial growth incubated for 18 hrs by two-fold serial dilution method
Chain of Signal peptidase I (Escherichia coli K-12) (P00803 whole entry): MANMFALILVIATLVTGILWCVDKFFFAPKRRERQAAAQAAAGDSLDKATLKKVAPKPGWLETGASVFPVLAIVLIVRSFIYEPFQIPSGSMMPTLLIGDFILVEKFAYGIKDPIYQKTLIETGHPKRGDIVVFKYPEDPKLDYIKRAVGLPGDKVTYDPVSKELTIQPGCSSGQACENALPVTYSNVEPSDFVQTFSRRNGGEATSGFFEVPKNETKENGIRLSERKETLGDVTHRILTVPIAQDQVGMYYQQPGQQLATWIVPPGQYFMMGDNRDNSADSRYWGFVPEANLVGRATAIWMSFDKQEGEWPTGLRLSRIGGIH

Escherichia coli [3] = assay: Antibacterial activity against Escherichia coli 25922 incubated for 18 hrs by two-fold serial dilution method; format: functional
[4] = Unbound fraction in human plasma at 5 uM measured after 24 hrs by LC-MS/MS analysis; format: ADME, cell-free

Compound | MIC (Escherichia coli [1]) [µg/mL] | MIC [2] [µg/mL] | MIC (Escherichia coli [3]) [µg/mL] | fraction unbound at 24 h, 5 µM [4]
CCCCCCCCC(=O)N[C@@H](CCN)C(=O)N(C)[C@@H]1C(=O)N[C@@H](C)C(=O)N[C@H](C(=O)NCC#N)Cc2ccc(OCCN)c(c2)-c2cc1ccc2OCCN | 61 | 0.12 (≈ 0.154 µM) | 23 (≈ 29.6 µM) | 
C[C@@H]1NC(=O)[C@@H](N(C)C(=O)[C@H](CCN)NC(=O)c2ccc(-c3ccc(Cl)cc3)cc2)c2ccc(OCCN)c(c2)-c2cc(ccc2OCCN)C[C@@H](C(=O)NCC#N)NC1=O | 3.8 | 0.022 (≈ 0.0258 µM) | 1.5 (≈ 1.76 µM) | 0.2
CCCCCCCCCC(=O)N[C@@H](CCN)C(=O)N(C)[C@@H]1C(=O)N[C@@H](C)C(=O)N[C@H](C(=O)NCC#N)Cc2ccc(OCCN)c(c2)-c2cc1ccc2OCCN | 51 | 0.1 (≈ 0.126 µM) | 15 (≈ 18.9 µM) | 
CCCCCCCCCCCC(=O)N[C@@H](CCN)C(=O)N(C)[C@@H]1C(=O)N[C@@H](C)C(=O)N[C@H](C(=O)NCC#N)Cc2ccc(OCCN)c(c2)-c2cc1ccc2OCCN | 7.5 | 0.007 (≈ 0.00854 µM) | 0.98 (≈ 1.2 µM) | 0.03
CC(C)CCc1ccc(-c2ccc(C(=O)N[C@@H](CCN)C(=O)N(C)[C@@H]3C(=O)N[C@@H](C)C(=O)N[C@H](C(=O)NCC#N)Cc4ccc(OCCN)c(c4)-c4cc3ccc4OCCN)cc2)cc1 | 3.8 | 0.015 (≈ 0.0169 µM) | 0.18 (≈ 0.203 µM) | 
Cc1cc(-c2ccc(Cl)cc2)ccc1C(=O)N[C@@H](CCN)C(=O)N(C)[C@@H]1C(=O)N[C@@H](C)C(=O)N[C@H](C(=O)NCC#N)Cc2ccc(OCCN)c(c2)-c2cc1ccc2OCCN | 2.3 | 0.01 (≈ 0.0115 µM) | 0.83 (≈ 0.958 µM) | 0.13
Cc1cc(-c2ccc(CC(C)C)cc2)ccc1C(=O)N[C@@H](CCN)C(=O)N(C)[C@@H]1C(=O)N[C@@H](C)C(=O)N[C@H](C(=O)NCC#N)Cc2ccc(OCCN)c(c2)-c2cc1ccc2OCCN | 0.83 | 0.006 (≈ 0.00676 µM) | 0.08 (≈ 0.0901 µM) | 0.001
Cc1nc(-c2ccc(C(C)(C)C)cc2)c(N)cc1C(=O)N[C@@H](CCN)C(=O)N(C)[C@@H]1C(=O)N[C@@H](C)C(=O)N[C@H](C(=O)NCC#N)Cc2ccc(OCCN)c(c2)-c2cc1ccc2OCCN | 0.12 | 0.021 (≈ 0.0232 µM) | 0.34 (≈ 0.376 µM) | 
Cc1nc(-c2ccc(C(C)(C)C)cc2)nc(N)c1C(=O)N[C@@H](CCN)C(=O)N(C)[C@@H]1C(=O)N[C@@H](C)C(=O)N[C@H](C(=O)NCC#N)Cc2ccc(OCCN)c(c2)-c2cc1ccc2OCCN | 0.11 | 0.005 (≈ 0.00552 µM) | 0.11 (≈ 0.122 µM) | 0.12
Cc1cc(-c2ccc(C(C)(C)C)cc2)nc(N)c1C(=O)N[C@@H](CCN)C(=O)N(C)[C@@H]1C(=O)N[C@@H](C)C(=O)N[C@H](C(=O)NCC#N)Cc2ccc(OCCN)c(c2)-c2cc1ccc2OCCN | 0.45 | 0.007 (≈ 0.00774 µM) | 0.23 (≈ 0.254 µM) | 0.058
CCCCCCCC(=O)N[C@@H](CCN)C(=O)N(C)[C@@H]1C(=O)N[C@@H](C)C(=O)N[C@H](C(=O)NCC#N)Cc2ccc(OCCN)c(c2)-c2cc1ccc2OCCN | 60 | 0.35 (≈ 0.458 µM) | 31 (≈ 40.6 µM) | 0.59
Cc1cc(-c2ccc(C(C)(C)C)cc2)ncc1C(=O)N[C@@H](CCN)C(=O)N(C)[C@@H]1C(=O)N[C@@H](C)C(=O)N[C@H](C(=O)NCC#N)Cc2ccc(OCCN)c(c2)-c2cc1ccc2OCCN | 0.24 | 0.004 (≈ 0.0045 µM) | 0.12 (≈ 0.135 µM) | 0.11
Cc1cc(-c2ccc(C(C)(C)C)cc2)cc(C)c1C(=O)N[C@@H](CCN)C(=O)N(C)[C@@H]1C(=O)N[C@@H](C)C(=O)N[C@H](C(=O)NCC#N)Cc2ccc(OCCN)c(c2)-c2cc1ccc2OCCN | 0.34 | 0.005 (≈ 0.00554 µM) | 0.17 (≈ 0.188 µM) | 
Cc1cc(-c2ccc(C(F)(F)F)cc2)ccc1C(=O)N[C@@H](CCN)C(=O)N(C)[C@@H]1C(=O)N[C@@H](C)C(=O)N[C@H](C(=O)NCC#N)Cc2ccc(OCCN)c(c2)-c2cc1ccc2OCCN | 1.4 | 0.014 (≈ 0.0156 µM) | 0.41 (≈ 0.456 µM) | 0.078
Cc1cc(-c2ccc(C(C)(C)C)cc2)ccc1C(=O)N[C@@H](CCN)C(=O)N(C)[C@@H]1C(=O)N[C@@H](C)C(=O)N[C@H](C(=O)NCC#N)Cc2ccc(OCCN)c(c2)-c2cc1ccc2OCCN | 0.44 | 0.011 (≈ 0.0124 µM) | 0.12 (≈ 0.135 µM) | 0.001
CCCCCCCCCCCCC(=O)N[C@@H](CCN)C(=O)N(C)[C@@H]1C(=O)N[C@@H](C)C(=O)N[C@H](C(=O)NCC#N)Cc2ccc(OCCN)c(c2)-c2cc1ccc2OCCN | 3.8 | 0.007 (≈ 0.00839 µM) | 0.23 (≈ 0.276 µM) | 0.01

Compound | MIC (Escherichia coli [1]) [µg/mL] | MIC [2] [µg/mL] | MIC (Escherichia coli [3]) [µg/mL] | fraction unbound at 24 h, 5 µM [4]
CCCCCCCCCCC(=O)N[C@@H](CCN)C(=O)N(C)[C@@H]1C(=O)N[C@@H](C)C(=O)N[C@H](C(=O)NCC#N)Cc2ccc(OCCN)c(c2)-c2cc1ccc2OCCN | 15 | 0.023 (≈ 0.0285 µM) | 3.8 (≈ 4.71 µM) | 0.09
C[C@@H]1NC(=O)[C@@H](N(C)C(=O)[C@H](CCN)NC(=O)c2cnc(-c3ccc(C(C)(C)C)cc3)cc2N)c2ccc(OCCN)c(c2)-c2cc(ccc2OCCN)C[C@@H](C(=O)NCC#N)NC1=O | 0.34 | 0.011 (≈ 0.0124 µM) | 0.22 (≈ 0.247 µM) | 
CCc1ccc(-c2ccc(C(=O)N[C@@H](CCN)C(=O)N(C)[C@@H]3C(=O)N[C@@H](C)C(=O)N[C@H](C(=O)NCC#N)Cc4ccc(OCCN)c(c4)-c4cc3ccc4OCCN)c(C)c2)cc1 | 0.75 | 0.008 (≈ 0.0093 µM) | 0.31 (≈ 0.36 µM) | 0.053
Cc1cc(-c2ccc(C(C)(C)C)cc2)nc(C)c1C(=O)N[C@@H](CCN)C(=O)N(C)[C@@H]1C(=O)N[C@@H](C)C(=O)N[C@H](C(=O)NCC#N)Cc2ccc(OCCN)c(c2)-c2cc1ccc2OCCN | 0.12 | 0.004 (≈ 0.00443 µM) | 0.18 (≈ 0.199 µM) | 0.083
Cc1cc(-c2ccc(-c3ccccc3)cc2)ccc1C(=O)N[C@@H](CCN)C(=O)N(C)[C@@H]1C(=O)N[C@@H](C)C(=O)N[C@H](C(=O)NCC#N)Cc2ccc(OCCN)c(c2)-c2cc1ccc2OCCN | 1.5 | 0.043 (≈ 0.0474 µM) | 0.22 (≈ 0.242 µM) | 0.017
Cc1nc(-c2ccc(C(C)(C)C)cc2)cc(N)c1C(=O)N[C@@H](CCN)C(=O)N(C)[C@@H]1C(=O)N[C@@H](C)C(=O)N[C@H](C(=O)NCC#N)Cc2ccc(OCCN)c(c2)-c2cc1ccc2OCCN | 0.08 | 0.007 (≈ 0.00774 µM) | 0.12 (≈ 0.133 µM) | 
C[C@@H]1NC(=O)[C@@H](N(C)C(=O)[C@H](CCN)NC(=O)c2ccc(-c3ccc(C(C)(C)C)cc3)nc2N)c2ccc(OCCN)c(c2)-c2cc(ccc2OCCN)C[C@@H](C(=O)NCC#N)NC1=O | 0.89 | 0.011 (≈ 0.0124 µM) | 0.45 (≈ 0.506 µM) | 0.063
CCCCCCCCCCCCCC(=O)N[C@@H](CCN)C(=O)N(C)[C@@H]1C(=O)N[C@@H](C)C(=O)N[C@H](C(=O)NCC#N)Cc2ccc(OCCN)c(c2)-c2cc1ccc2OCCN | 3.8 | 0.014 (≈ 0.0165 µM) | 0.24 (≈ 0.283 µM) | 
Cc1cc(-c2ccccc2)ccc1C(=O)N[C@@H](CCN)C(=O)N(C)[C@@H]1C(=O)N[C@@H](C)C(=O)N[C@H](C(=O)NCC#N)Cc2ccc(OCCN)c(c2)-c2cc1ccc2OCCN | 2 | 0.023 (≈ 0.0276 µM) | 3 (≈ 3.61 µM) | 0.34
Cc1nc(-c2ccc(C(C)(C)C)cc2)ccc1C(=O)N[C@@H](CCN)C(=O)N(C)[C@@H]1C(=O)N[C@@H](C)C(=O)N[C@H](C(=O)NCC#N)Cc2ccc(OCCN)c(c2)-c2cc1ccc2OCCN | 0.12 | 0.004 (≈ 0.0045 µM) | 0.12 (≈ 0.135 µM) | 
Cc1nc(-c2ccc(C(C)(C)C)cc2)nc(C)c1C(=O)N[C@@H](CCN)C(=O)N(C)[C@@H]1C(=O)N[C@@H](C)C(=O)N[C@H](C(=O)NCC#N)Cc2ccc(OCCN)c(c2)-c2cc1ccc2OCCN | 0.17 | 0.003 (≈ 0.00332 µM) | 0.13 (≈ 0.144 µM) | 0.22
Cc1nc(-c2ccc(C(C)(C)C)cc2)ncc1C(=O)N[C@@H](CCN)C(=O)N(C)[C@@H]1C(=O)N[C@@H](C)C(=O)N[C@H](C(=O)NCC#N)Cc2ccc(OCCN)c(c2)-c2cc1ccc2OCCN | 0.2 | 0.004 (≈ 0.00449 µM) | 0.14 (≈ 0.157 µM) | 0.23
CNc1nc(-c2ccc(C(C)(C)C)cc2)ncc1C(=O)N[C@@H](CCN)C(=O)N(C)[C@@H]1C(=O)N[C@@H](C)C(=O)N[C@H](C(=O)NCC#N)Cc2ccc(OCCN)c(c2)-c2cc1ccc2OCCN | 0.68 | 0.007 (≈ 0.00773 µM) | 0.34 (≈ 0.376 µM) | 
Cc1cc(-c2ccc(C(C)C)cc2)ccc1C(=O)N[C@@H](CCN)C(=O)N(C)[C@@H]1C(=O)N[C@@H](C)C(=O)N[C@H](C(=O)NCC#N)Cc2ccc(OCCN)c(c2)-c2cc1ccc2OCCN | 0.96 | 0.007 (≈ 0.00801 µM) | 0.15 (≈ 0.172 µM) | 0.086
CCCCc1ccc(-c2ccc(C(=O)N[C@@H](CCN)C(=O)N(C)[C@@H]3C(=O)N[C@@H](C)C(=O)N[C@H](C(=O)NCC#N)Cc4ccc(OCCN)c(c4)-c4cc3ccc4OCCN)cc2)cc1 | 2.1 | 0.016 (≈ 0.0183 µM) | 0.2 (≈ 0.229 µM) | 
